Assay results reported in patent US6214805A, “RNase L activators and antisense oligonucleotides effective to treat RSV infections” (priority 1997, dated 2001).
pEC50, pIC50: −log10 of the molar value.

Key:
RSV strain A2 [1] = assay: CPE inhibition assay in HEp-2 cells; type: cell-based, Respiratory syncytial virus; conditions: for pEC50: human respiratory syncytial virus
Method: The CPE inhibition assay used in this study was performed as described by Sidwell and Huffman (Sidwell et al., 1971, Appl. Microbiol. 22:7979-7801) with slight modifications. Varying concentrations of test compounds were added to each plate containing near confluent cell monolayers (1×10^5 cells/well) followed immediately by the addition of virus at a multiplicity of infection (MOI)=0.01, and then incubated at 37° C. […] All compounds were assayed for virus inhibition in quadruplicate and for cytotoxicity in duplicate. For each compound, two wells were set aside as uninfected, untreated cell controls per test and four wells per test received virus only and represented controls for virus replication. […] For all CPE-based assays, the 50% effective concentration (EC50) was calculated by regression analysis using the means of the CPE ratings at each concentration of compound.

RSV strain A2 [2] = assay: Neutral red uptake assay of CPE inhibition in HEp-2 cells; type: cell-based, Respiratory syncytial virus; conditions: for pEC50: human respiratory syncytial virus
Method: (§1) This assay was performed by a modified method as described by Cavenaugh et al. (Cavenaugh et al. 1990, Invest. New Drugs 8:347-354). Briefly, medium was removed from each well of a plate scored for CPE from a CPE inhibition assay, 0.2 ml of neutral red (0.034% in PSS) was added to each of the wells of that plate and the plate incubated for 2 hr at 37° C. in the dark. The neutral red solution was removed from the wells and the wells rinsed twice with PBS (pH 7.4). Equal volumes (0.1 ml) of absolute ethanol and Sorenson citrate buffer (0.1 M sodium citrate, 0.1 M HCI, pH 4.2) were mixed together and added to each well. Plates were incubated in the dark for 30 min. at room temperature to solubilize the dye. The plates were then gently mixed on a 96-well plate adapted vortexer for 1 min. Absorbances at 540 nm and 450 nm were read with a microplate reader (Bio-Tek EL 1309; Bio-Tek Instruments, Inc. Winooski, Vt.). Absorbance values were expressed as percents of untreated controls and EC50 and IC50 values were calculated by regression analysis.

RSV Long (A) = assay: Neutral red uptake assay in HEp-2 cells, RSV strain Long; type: cell-based, Respiratory syncytial virus; conditions: Table 12, neutral red
Method: as §1
(§2) In this series, MP351 was added once a day for two days with fresh medium

[3] = system: RSV 393 (clinical isolate); assay: CPE inhibition assay in HEp-2 cells, RSV 393; type: cell-based, Respiratory syncytial virus; conditions: Table 12, CPE
Method: The CPE inhibition assay used in this study was performed as described by Sidwell and Huffman (Sidwell et al., 1971, Appl. Microbiol. 22:7979-7801) with slight modifications. Varying concentrations of test compounds were added to each plate containing near confluent cell monolayers (1×10^5 cells/well) followed immediately by the addition of virus at a multiplicity of infection (MOI)=0.01, and then incubated at 37° C. On the following day, the medium from each plate was removed and fresh compound added. The assay was stopped at the end of the sixth day when the virus cytopathic effect in the virus infected, untreated control cells affected all cells. All compounds were assayed for virus inhibition in quadruplicate and for cytotoxicity in duplicate. For each compound, two wells were set aside as uninfected, untreated cell controls per test and four wells per test received virus only and represented controls for virus replication. […] For all CPE-based assays, the 50% effective concentration (EC50) was calculated by regression analysis using the means of the CPE ratings at each concentration of compound.
as §2

[4] = system: RSV 393 (clinical isolate); assay: Neutral red uptake assay in HEp-2 cells, RSV 393; type: cell-based, Respiratory syncytial virus; conditions: Table 12, neutral red
Method: as §1, §2

[5] = in vivo; cited from earlier work
Hep-2 Cells = assay: Cytotoxicity by morphological changes in HEp-2 cells (CPE inhibition assay); type: cell-based, human; conditions: Homo sapiens
Method: Embryonic African green monkey kidney cells (MA-104) were obtained from BioWhittaker, Inc. (Walkersville, Md.). HEp-2 cells were propagated from a human epidermoid carcinoma of the larynx (American Type Culture Collection, ATCC; Rockville, Md.). The cells were grown in minimal essential medium. (MEM, Gibco-BRL, Gaitherburg, Md.) supplemented with 0.1% NaHCO3 and 10% fetal bovine serum (FBS, Hyclone Laboratories, Logan Utah.). When performing antiviral assays, serum was reduced to 2% and 50 μg/ml gentamicin (Sigma Chemical Company, St. Louis, Mo.) was added to the medium.
Morphological changes due to compound cytotoxicity were graded on a scale of 0-5; grade 5 was defined as 100% cytotoxicity. The 50% cytotoxic dose (IC50 was calculated by regression analysis. A selective index (S.I.) was calculated for each compound [S.I.=(IC50)/(EC50 ].

[6] = HEp-2, 24 h, Table 10, CPE, q.d. 1 day (added along with virus, never replenished), HEp2
[7] = human respiratory syncytial virus, 48 h, once a day for two days

NC(=O)c1ncn([C@@H]2O[C@H](CO)[C@@H](O)[C@H]2O)n1 [Ribavirin]
SI (RSV strain A2 [1]; Table 10, CPE, B.I.D. 2 days, HEp2): > 57 | SI (RSV strain A2 [1]; Table 10, CPE, B.I.D. 3 days, HEp2): > 180 | SI (RSV strain A2 [1]; Table 10, CPE, B.I.D. 4 days, HEp2): 57 | SI (RSV strain A2 [1]; Table 10, CPE, q.d. 1 day (added along with virus, never replenished), HEp2): 57 | SI (RSV strain A2 [1]; Table 10, CPE, q.d. 3 days, HEp2): > 57 | SI (RSV strain A2 [1]; Table 10, CPE, q.d. 4 days, HEp2): > 57 | SI (RSV strain A2 [1]; Table 13, CPE, q.d., Day 0, HEp-2): 30 | SI (RSV strain A2 [1]; Table 13, CPE, q.d., Day 1, HEp-2): 8 | SI (RSV strain A2 [1]; Table 13, CPE, q.d., Day 2, HEp-2): 80 | pEC50 (RSV strain A2 [1]; HEp-2, 0 h, Table 13, CPE, q.d., Day 0 (added immediately after virus exposure), HEp-2): 4.92 | pEC50 (RSV strain A2 [1]; [6]): 5.40 | pEC50 (RSV strain A2 [1]; HEp-2, 24 h, Table 13, CPE, q.d., fresh compound up to Day 1 post infection, HEp-2): 5.40 | pEC50 (RSV strain A2 [1]; HEp-2, 48 h, Table 10, CPE, B.I.D. 2 days, HEp2, read-out: EC50): > 5.40 | pEC50 (RSV strain A2 [1]; HEp-2, 48 h, Table 13, CPE, q.d., fresh compound up to Day 2 post infection, HEp-2, read-out: EC50): 5.40 | pEC50 (RSV strain A2 [1]; HEp-2, 72 h, Table 10, CPE, B.I.D. 3 days, HEp2, read-out: EC50): > 5.40 | pEC50 (RSV strain A2 [1]; HEp-2, 72 h, Table 10, CPE, q.d. 3 days, HEp2, read-out: EC50): > 5.40 | pEC50 (RSV strain A2 [1]; HEp-2, 96 h, Table 10, CPE, B.I.D. 4 days, HEp2, read-out: EC50): 5.40 | pEC50 (RSV strain A2 [1]; HEp-2, 96 h, Table 10, CPE, q.d. 4 days, HEp2, read-out: EC50): > 5.40 | SI (RSV strain A2 [2]; Table 11, neutral red, B.I.D. 2 days, HEp2): 130 | SI (RSV strain A2 [2]; Table 11, neutral red, B.I.D. 3 days, HEp2): > 175 | SI (RSV strain A2 [2]; Table 11, neutral red, B.I.D. 4 days, HEp2): 75 | SI (RSV strain A2 [2]; Table 11, neutral red, q.d. 1 day (added along with virus, never replenished), HEp2): > 120 | SI (RSV strain A2 [2]; Table 11, neutral red, q.d. 3 days, HEp2): 126 | SI (RSV strain A2 [2]; Table 11, neutral red, q.d. 4 days, HEp2): 36 | SI (RSV strain A2 [2]; Table 13, neutral red, q.d., Day 0, HEp-2): 27 | SI (RSV strain A2 [2]; Table 13, neutral red, q.d., Day 1, HEp-2): 28 | SI (RSV strain A2 [2]; Table 13, neutral red, q.d., Day 2, HEp-2): 80 | pEC50 (RSV strain A2 [2]; HEp-2, 0 h, Table 13, neutral red, q.d., Day 0 (added immediately after virus exposure), HEp-2): 4.92 | pEC50 (RSV strain A2 [2]; HEp-2, 24 h, Table 11, neutral red, q.d. 1 day (added along with virus, never replenished), HEp2): 5.40 | pEC50 (RSV strain A2 [2]; HEp-2, 24 h, Table 13, neutral red, q.d., fresh compound up to Day 1 post infection, HEp-2): 4.40 | pEC50 (RSV strain A2 [2]; HEp-2, 48 h, Table 11, neutral red, B.I.D. 2 days, HEp2): 5.10 | pEC50 (RSV strain A2 [2]; HEp-2, 48 h, Table 13, neutral red, q.d., fresh compound up to Day 2 post infection, HEp-2, read-out: EC50): 5.40 | pEC50 (RSV strain A2 [2]; HEp-2, 72 h, Table 11, neutral red, B.I.D. 3 days, HEp2, read-out: EC50): > 5.40 | pEC50 (RSV strain A2 [2]; HEp-2, 72 h, Table 11, neutral red, q.d. 3 days, HEp2, read-out: EC50): 5.10 | pEC50 (RSV strain A2 [2]; HEp-2, 96 h, Table 11, neutral red, B.I.D. 4 days, HEp2, read-out: EC50): 5.10 | pEC50 (RSV strain A2 [2]; HEp-2, 96 h, Table 11, neutral red, q.d. 4 days, HEp2, read-out: EC50): 4.70 | SI (RSV Long (A)): 23 | pEC50 (RSV Long (A); [7]): 4.92 | SI [3]: 24 | pEC50 [3, 7]: 5.40 | SI [4]: 24 | pEC50 [4, 7]: 5.40 | half-life [5]: 40 days | pIC50 (Hep-2 Cells; HEp-2, 0 h, Table 13, CPE, q.d., Day 0, HEp-2): 3.62 | pIC50 (Hep-2 Cells; [6]): 3.64 | pIC50 (Hep-2 Cells; HEp-2, 24 h, Table 13, CPE, q.d., Day 1, HEp-2): 3.49 | pIC50 (Hep-2 Cells; HEp-2, 48 h, Table 10, CPE, B.I.D. 2 days, HEp2): 3.64 | pIC50 (Hep-2 Cells; HEp-2, 48 h, Table 13, CPE, q.d., Day 2, HEp-2): 3.49 | pIC50 (Hep-2 Cells; HEp-2, 72 h, Table 10, CPE, B.I.D. 3 days, HEp2): 3.14 | pIC50 (Hep-2 Cells; HEp-2, 72 h, Table 10, CPE, q.d. 3 days, HEp2): 3.64 | pIC50 (Hep-2 Cells; HEp-2, 96 h, Table 10, CPE, B.I.D. 4 days, HEp2): 3.64 | pIC50 (Hep-2 Cells; HEp-2, 96 h, Table 10, CPE, q.d. 4 days, HEp2): 3.64 | pIC50 (Hep-2 Cells; HEp-2, Table 12, CPE, test with 393 (clinical isolate), HEp-2): 4.02 | pIC50 (Hep-2 Cells; HEp-2, Table 12, CPE, test with CH18537 (B), HEp-2): 3.68 | pIC50 (Hep-2 Cells; HEp-2, Table 12, CPE, test with Long (A), HEp-2): 3.69
